The values that follow are results of earlier work, collected in EP3027215B1, “POWDER FORMULATION OF VALGANCICLOVIR” (Ali Raif Ilaç Sanayi ve Ticaret Anonim Sirketi, priority 2013, dated 2015).

The conditions of data set [1]: at pH 7.0.
The conditions of data set [2]: solid form, stored under room temperature conditions.

As for `CC(C)[C@H](N)C(=O)OCC(CO)OCn1cnc2c(=O)[nH]c(N)nc21.Cl` (stereo partly drawn) [Valganciclovir hydrochloride, L-Valine, 2-[(2-amino-1,6-dihydro-6-oxo-9H-purin-9-yl)methoxy]-3-hydroxypropyl ester, monohydrochloride], the n-octanol-water partition coefficient in data set [1] is given as 0.0095. Further, in data set [2], the “physical, chemical, and light stability” value was “acceptable”.
